Source: US9790496B2, “Microrna compounds and methods for modulating MIR-21 activity” (Regulus Therapeutics, Inc., priority 2011, dated 2017)
Where “and” joins values, the source holds several entries; their conditions need not be identical. Identical values can stand only once.

What was measured:
[1] = test system: collagen 1A1 and collagen 3A1 expression in kidney, ischemia reperfusion injury (IRI) model; experiment: Unilateral ischemia reperfusion injury (IRI) model: kidney collagen 1A1 and collagen 3A1 expression; type: in vivo, mouse; settings: 14 day study, dosing Day 5, 6, 7, fold change relative to sham
[2] = Ex vivo liver homogenate stability assay (HPLC-TOF MS); settings: 5 μM in liver homogenate (50 mg tissue per ml), 24 hours at 37° C.
[3] = test system: collagen 1A1 and collagen 3A1 expression in kidney, ischemia reperfusion injury (IRI) model; experiment: Unilateral ischemia reperfusion injury (IRI) model: kidney collagen 1A1 and collagen 3A1 expression; type: in vivo, mouse
Protocol: A model of ischemia reperfusion injury (IRI) is created in the mouse through unilateral or bilateral clamping of kidney arteries, which leads to tubule damage, inflammation, and fibrosis. Kidney dysfunction can occur either early (<5 days) or late (>7 days) in this model, with the early time points useful to test candidate agents for the treatment of acute kidney injury, and the later time points useful to model chronic fibrosis.
Anti-miR-21 compounds were tested in the unilateral IRI model. Unilateral IRI was induced for a period of 30 minutes. Treatment groups were as follows: sham IRI procedure; IRI with PBS administered subcutaneously; IRI with anti-miR-21 compound 25070 administered intraperitoneally at a dose of 20 mg/kg; the 2′-fluoro/2′-MOE modified anti-miR-21 25919 administered intraperitoneally at a dose of 20 mg/kg; and a 2′-fluoro/2′ modified mismatch anti-miR-21 (having three mismatches to the sequence of miR-21) 25319 administered intraperitoneally at a dose of 20 mg/kg. PBS or anti-miR compound was administered on days 5, 6, and 7 following IRI, and animals were sacrificed 14 days after IRI. As anti-miR compound is administered 5 days following the injury to the kidney, or later, when fibrosis has already occurred to some extent, this treatment regimen is considered a therapeutic regimen, rather than a prophylactic regimen.
Kidney tissue was collected for analysis of collagen 1A1 and collagen 3A1 expression (shown in Table O), and collagen area fraction (shown in Table P).
A similar study was performed with the same treatment groups and additional days of treatment. In this study, treatments were administered intraperitoneally at days 5, 6, 7, 14, and 21 following the IRI procedure Animals were sacrificed on Day 27, and kidney tissue was collected for analysis of collagen 1A1 and collagen 3A1 expression, as well as collagen area fraction.
In order to assess the flexibility of administration of the anti-miR-21 compound 25070, the activity of the compound in the 14 day study above, where anti-miR-21 was administered at […] following the IRI procedure, to a different 14 day study where anti-miR-21 was administered intraperitoneally at days 3, 5, and 7 following the IRI procedure.

[4] = In vivo stability: compound in kidney tissue after administration to mice; settings: mice; by 7 days post-injection
[5] = IRI, 14 day study, dosing Day 3, 5, 7 intraperitoneally, fold change relative to sham
[6] = unilateral IRI, 20 mg/kg intraperitoneally on days 5, 6, 7, sacrifice 14 days after IRI, 20 mg/kg
[7] = unilateral IRI, intraperitoneally on days 5, 6, 7, 14, 21, sacrifice Day 27

## AECSATCSAGTCSTGAUSAAGCSTAE (ACATCAGTCTGATAAGCTA; modified nucleosides coded in name, code key not given here) [Compound 25070]
[1]
  Collagen 1A1 (Normalized Expression), individual animal: 21.7 and 22.8 and 15.8 and 27.6 and 27.1 and 29.3 and 10.8 and 21.5 and 29.9 and 35.0 and 28.3 and 24.2
  Collagen 3A1 (Normalized Expression), individual animal: 24.9 and 26.3 and 13.6 and 25.4 and 32.7 and 29.9 and 9.7 and 22.2 and 33.2 and 35.4 and 32.3 and 28.9
[2]
  compound lacking the 3'-terminal nucleoside: about 27%
  compound present as the full-length compound: about 58%
[3]; IRI, 14 day studies, two dosing schedules compared (days 3, 5, 7 i.p.)
  reduction of collagen 1A1 or collagen 3A1 expression relative to sham (in words): statistically significant reduction of collagen expression with either dosing schedule
[3]; [5]
  Collagen 1A1 (Normalized Expression), individual animal: 37.5 and 21.9 and 35.3 and 26.0 and 24.9 and 16.8 and 30.8 and 34.3 and 36.8 and 9.4 and 28.0 and 24.6
  Collagen 3A1 (Normalized Expression), individual animal: 35.3 and 23.6 and 32.1 and 25.1 and 31.3 and 18.6 and 30.3 and 37.6 and 40.0 and 9.5 and 23.2 and 28.7
[3]; [6]
  Collagen 1A1 (Normalized Expression), individual animal: 81.7 and 57.4 and 37.9 and 55.3 and 22.3 and 52.4 and 53.0 and 41.5
  Collagen 3A1 (Normalized Expression), individual animal: 57.8 and 18.1 and 39.3 and 36.0 and 20.6 and 38.6 and 33.4 and 29.7
[3]; [7]
  Collagen 1A1 (Normalized Expression), individual animal: 26.4 and 37.4 and 41.9 and 36.8 and 14.1 and 27.7 and 29.4 and 37.6
  Collagen 3A1 (Normalized Expression), individual animal: 16.4 and 27.0 and 28.5 and 19.6 and 11.3 and 19.3 and 21.4 and 23.1
[4]
  compound present in kidney tissue lacking the 3'-terminal nucleoside: about 50%
